For 1 molecule, KD results are on record in PMC10694602, “Binding of perilipin 3 to membranes containing diacylglycerol is mediated by conserved residues within its PAT domain” (The Journal of Biological Chemistry, 2023).

For experiment [1], the target named is T1, PLIN3 - E86A I89G S93A (Homo sapiens, UniProt O60664, E86A/I89G/S93A).
T1 construct: Plasmids containing human full-length PLIN3 or fragments thereof were obtained by PCR amplification; made in house; host or cells: Escherichia coli BL21 (DE3) or NiCo21 (DE3)
T1 sequence (O60664 1-434 E86A/I89G/S93A): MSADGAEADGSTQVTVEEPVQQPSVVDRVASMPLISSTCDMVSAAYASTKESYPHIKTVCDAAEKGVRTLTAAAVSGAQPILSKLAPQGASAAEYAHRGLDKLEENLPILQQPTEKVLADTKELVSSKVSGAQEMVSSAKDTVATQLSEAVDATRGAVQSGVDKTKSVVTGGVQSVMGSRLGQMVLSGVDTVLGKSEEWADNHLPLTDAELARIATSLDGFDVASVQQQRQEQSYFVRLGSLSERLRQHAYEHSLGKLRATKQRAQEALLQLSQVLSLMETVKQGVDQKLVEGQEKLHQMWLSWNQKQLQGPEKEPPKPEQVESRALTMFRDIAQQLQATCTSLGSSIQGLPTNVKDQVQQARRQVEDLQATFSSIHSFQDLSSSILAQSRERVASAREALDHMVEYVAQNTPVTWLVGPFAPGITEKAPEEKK
The experiment is described as follows: MST binding to the PLIN3 triple mutant. The following applies: short chain lipid as free ligand; n.d. = not detected; Fig. 4C. The text has this:
(§1) To validate this predicted mode of DAG binding by the PAT domain, we generated mutant versions of PLIN3 and assessed their impact on DAG binding by MST. First, we tested whether the simultaneous substitution of the five residues, Q22, S24, E86A, I89G, and S93A, would impact either binding of short chain DAG or that of liposomes containing low concentrations of DAG. […] To assess the impact of these residues in more detail, we first tested mutations in the two serine residues S24A and S93A. […] To confirm the importance of the glutamic acid residue at position 86 for binding of DAG, we also generated an E86A point mutant version.
(§2) Binding of purified PLIN3 protein and PLIN3 domains to liposomes, ALDs, or short chain lipids was determined by MST using a Monolith NT.115 system (Nanotemper Technologies). Proteins were labeled with a RED-tris-NTA His tag protein-labeling reagent following the manufacturer’s instructions (Nanotemper Technologies). Labeled proteins were added to a serial dilution of unlabeled lipids, liposomes, or ALDs, and the mixtures were loaded into MST standard capillaries to assess binding affinities. The dissociation constant was obtained by plotting fluorescence intensities of the protein–lipid complex against the concentrations of the unlabeled lipids, liposomes, or ALDs. […]

In experiment [2] the target is T2, PLIN3 - Q22A S24A E86A I89G S93A (Homo sapiens, UniProt O60664, E86A/I89G/Q22A/S24A/S93A).
T2 construct: Plasmids containing human full-length PLIN3 or fragments thereof were obtained by PCR amplification; made in house; host or cells: Escherichia coli BL21 (DE3) or NiCo21 (DE3)
T2 sequence (O60664 1-434 Q22A/S24A/E86A/I89G/S93A): T1 sequence (O60664 1-434 E86A/I89G/S93A) with Q22A, S24A
In words: MST binding to the PLIN3 quintuple mutant. The following applies: short chain lipid as free ligand; n.d.; Fig. S1.
Source text: as §1, §2

Residue numbers refer to the chain shown, from its start.

As for `CCCCCCCC(=O)OC[C@H](CO)OC(=O)CCCCCCC` [8:0 DAG, 1,2-dioctanoyl-sn-glycerol], the KD result in experiment [1] and in experiment [2] was “failed to bind” each time.
